Reference: the supplement of paper PMC10307832

Key:
Assay in all cases: relative viability (nuclei count vs DMSO), 5 days (fraction); higher = more cells survive
[1] = compound: CN1CCC(CC1)OC2=CC(=C(C=C2)NC3=NC=C4C(=N3)N(C(=O)N4C)C5CCCC5)OC [AZ3146] + Cc1nc(NC(=O)N2CCC[C@H]2C(N)=O)sc1-c1ccnc(C(C)(C)C(F)(F)F)c1 [Alpelisib] (partner 2 µM)
Procedure, shortened: (§1)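 Lung cancer cell lines in 1536-well plates were dosed by pin tool the day after seeding, either with one drug alone or with a fixed anchor-drug dose plus five library-drug doses (not always all listed) in √10 steps. After 5 days, cells were fixed and their nuclei stained in one step (final 0.05% Triton X-100, 1% formaldehyde, 1 ug/ml Hoechst), then counted on 4× images. Relative viability is the nuclei count in treated wells divided by that in vehicle wells. Values are medians of duplicate plates.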

[2] = compound: CN1CCC(CC1)OC2=CC(=C(C=C2)NC3=NC=C4C(=N3)N(C(=O)N4C)C5CCCC5)OC [AZ3146] + COc1cccc2cc(-c3nc([C@H]4CC[C@H](C(=O)O)CC4)n4ncnc(N)c34)[nH]c12 [OSI-027] (partner 0.5 µM)
Procedure, shortened: as §1

[3] = compound: CN1CCC(CC1)OC2=CC(=C(C=C2)NC3=NC=C4C(=N3)N(C(=O)N4C)C5CCCC5)OC [AZ3146] + O=C(CCCCCCC(=O)Nc1ccccc1)NO [Vorinostat] (partner 1 µM)
Procedure, shortened: as §1

[4] = compound: CN1CCC(CC1)OC2=CC(=C(C=C2)NC3=NC=C4C(=N3)N(C(=O)N4C)C5CCCC5)OC [AZ3146] + C[C@]1(O)C[C@@H](c2nc(-c3ccc4ccc(-c5ccccc5)nc4c3)c3c(N)nccn32)C1 [Linsitinib] (partner 1 µM)
Procedure, shortened: as §1

Cell Line | relative viability ([1]; first compound 0.08 µM) | relative viability ([1]; first compound 0.253 µM) | relative viability ([1]; first compound 0.8 µM) | relative viability ([1]; first compound 2.53 µM) | relative viability ([1]; first compound 8 µM) | relative viability ([2]; first compound 0.08 µM) | relative viability ([2]; first compound 0.253 µM) | relative viability ([2]; first compound 0.8 µM) | relative viability ([2]; first compound 2.53 µM) | relative viability ([2]; first compound 8 µM) | relative viability ([3]; first compound 0.08 µM) | relative viability ([3]; first compound 0.253 µM) | relative viability ([3]; first compound 0.8 µM) | relative viability ([3]; first compound 2.53 µM) | relative viability ([3]; first compound 8 µM) | relative viability ([4]; first compound 0.08 µM) | relative viability ([4]; first compound 0.253 µM) | relative viability ([4]; first compound 0.8 µM) | relative viability ([4]; first compound 2.53 µM) | relative viability ([4]; first compound 8 µM)
NCI-H1666 | 0.739 | 0.848 | 0.962 | 0.956 | 0.841 | 0.866 | 0.881 | 0.922 | 0.806 | 0.839 | 0.976 | 1.09 | 1.01 | 1.09 | 0.994 | 0.738 | 0.862 | 0.906 | 0.829 | 0.858
CAL-12T | 1.21 | 1.31 | 1.36 | 1.31 | 0.765 | 0.798 | 0.652 | 0.612 | 0.805 | 0.655 | 0.695 | 0.743 | 0.832 | 0.778 | 0.553 | 0.867 | 0.756 | 0.824 | 0.885 | 0.932
EPLC-272H | 0.706 | 0.925 | 0.933 | 0.973 | 0.964 | – | 0.277 | 0.272 | 0.309 | 0.308 | 0.297 | 0.52 | 0.299 | 0.499 | 0.329 | 0.988 | 1.07 | 1.16 | 1.07 | 1.24
NCI-H1299 | 1 | 1.01 | 1.02 | 1.07 | 1.08 | – | – | – | – | – | – | – | – | – | – | 0.941 | 0.981 | 0.964 | 0.99 | 1.03
ABC-1 | 0.968 | 0.981 | 1.23 | 1 | 1.09 | 0.466 | 0.484 | 0.454 | 0.614 | 0.472 | 0.618 | 1.02 | 1.53 | 1.2 | 1.16 | 0.83 | 0.71 | 0.861 | 0.855 | 0.977
NCI-H358 | 0.897 | 0.741 | 0.783 | 0.889 | 0.78 | 0.762 | 0.753 | 0.661 | 0.82 | 0.431 | 0.571 | 0.687 | 0.631 | 0.723 | 0.171 | 0.868 | 0.744 | 0.65 | 0.75 | 0.461
NCI-H1437 | 0.954 | 1.05 | 0.876 | 0.96 | 0.911 | 0.813 | 0.876 | 0.821 | 0.875 | 0.995 | 0.774 | 0.771 | 0.842 | 0.839 | 0.538 | 0.967 | 0.996 | 1.01 | 1.04 | 1.03
EKVX | 0.865 | 0.802 | 0.716 | 0.981 | 1 | 0.72 | 0.653 | 0.629 | 0.63 | 0.687 | 0.608 | 0.81 | 0.818 | 0.885 | 0.681 | 0.945 | 1 | 0.819 | 1.09 | 0.95
NCI-H3122 | 0.68 | 0.683 | 0.702 | 0.872 | 0.775 | 1.07 | 1.03 | 0.776 | 0.92 | 0.729 | 0.92 | 0.969 | 1.08 | 1.07 | 0.932 | 1.02 | 1.06 | 1.03 | 1.04 | 1.06
NCI-H2023 | 0.593 | 0.499 | 0.642 | 0.608 | 0.463 | 0.42 | 0.364 | 0.298 | 0.362 | 0.21 | 0.422 | 0.991 | 0.407 | 0.471 | 0.193 | 0.743 | 0.694 | 0.612 | 0.677 | 0.546
NCI-H1650 | – | – | – | – | – | 0.474 | 0.622 | 0.515 | 0.607 | 0.395 | 0.578 | 0.392 | 0.563 | 0.554 | 0.475 | – | – | – | – | –
NCI-H2342 | – | – | – | – | – | 0.592 | 0.536 | 0.59 | 0.508 | 0.61 | 0.705 | 0.688 | 1.01 | 0.695 | 0.764 | – | – | – | – | –
EBC-1 | 0.927 | 0.828 | 0.731 | 0.882 | 0.711 | – | – | – | – | – | – | – | – | – | – | 0.906 | 0.707 | 0.899 | 0.879 | 0.991
Calu-6 | 1.01 | 1.01 | 1.04 | 1.03 | 0.787 | – | – | – | – | – | – | – | – | – | – | 0.925 | 0.925 | 0.928 | 0.948 | 0.971
NCI-H2170 | 0.72 | 0.767 | 0.82 | 0.794 | 0.733 | 0.676 | 0.66 | 0.66 | 0.713 | 0.713 | 0.815 | 0.763 | 0.854 | 0.867 | 0.751 | – | – | – | – | –
A549 | 0.716 | 0.794 | 0.718 | 0.732 | 0.308 | – | – | – | – | – | – | – | – | – | – | 0.653 | 0.653 | 0.593 | 0.571 | 0.51
SW 900 | – | – | – | – | – | 0.459 | 0.491 | 0.613 | 0.549 | 0.387 | 0.465 | – | 0.393 | 0.48 | 0.446 | – | – | – | – | –
IA-LM | 0.638 | 0.627 | 0.864 | 0.714 | 0.763 | – | – | – | – | – | 0.674 | 0.872 | 1.01 | 0.924 | 1.06 | 0.729 | 0.441 | 0.652 | 0.803 | 0.626
NCI-H1703 | 0.374 | 0.34 | 0.326 | 0.437 | 0.29 | – | – | – | – | – | – | – | – | – | – | 0.824 | 1.15 | 0.637 | 0.872 | 0.924
NCI-H1563 | 0.924 | 0.87 | 1 | 0.927 | 0.882 | 0.684 | 0.731 | 0.765 | 0.746 | 0.696 | – | – | – | – | – | 1.09 | 1.36 | 1.15 | 1.24 | 1.35
NCI-H1648 | – | – | – | – | – | – | 0.268 | 0.233 | 0.253 | 0.302 | – | – | 0.554 | 0.498 | 0.634 | – | – | – | – | –
